In one data set the test system is T. gondii RH tachyzoites. The data set can be described thus: Influence on T. gondii proliferation ([3H]uracil incorporation) in infected Vero cells. It counts as cell-based, Toxoplasma gondii. Particulars: Toxoplasma gondii, Vero.
The nature of data set [1]: MTT cell viability (cytotoxicity) assay on L929 cells. It counts as cell-based, mouse. Particulars: mouse, 24 h, % of untreated cells; for viability at 24 h, 62.5 µg/mL: 62.50 µg/mL. The method, then: (§1) Cells were trypsinized twice a week, and seeded at density 1 × 10^6 per T25 cell culture flask, and incubated for 24-48 h at 37 °C and 10% CO2 to achieve a confluent monolayer. […] The final concentration of DMSO in compounds dilutions was not higher than 1.00%. […] Dilution of the all compounds 2-22 and drug were freshly prepared before the cells were exposed. […] The MTT assay was used according to international standards: ISO 10993-5:2009(E), Biological evaluation of medical devices, Part 5: Tests for in vitro cytotoxicity. […] Afterward, the culture medium in the plates was replaced by 100 μL of compounds and sulfadiazine suspension and the cells were exposed for 24 h. Then, 1 mg/mL of MTT solution in RPMI 1640 without phenol red was prepared and 50 μL of the solution was added to each well and incubated at 37 °C, 10% CO2 for 2 h. Mitochondrial dehydrogenases of viable cells reduced the yellowish water-soluble MTT to water-insoluble formazan crystals, which were solubilized with dimethyl sulfoxide (DMSO). The cell culture medium was aspirated cautiously, after which 150 μL DMSO was added to each well, the plates were gently mixed, then 25 μL 0.1 M glycine buffer (pH = 10.5) (Sigma) was added. Optical density was read on the ELISA reader (Multiskan EX, Labsystems, Vienna, VA, USA) at 570 nm. The results were expressed as the percentage of viability compared to untreated cells. All experiments were performed in triplicate. Moreover, cells were treated with 4.0-0.03% concentration of DMSO as a compounds solvent (data not shown).

In the next data set the test system is L929 cells. Described as above. It counts as cell-based, mouse. Particulars: L929 cells, 24 h exposure. The protocol: as §1
Where [2] appears, read: RH tachyzoites in Vero cells, [3H]uracil incorporation, highest concentration tested 125 µg/mL, read-out: IC50 (50% inhibition of T. gondii proliferation in vitro).

≈ marks a conversion by molar mass, not a printed value. Where “and” joins values, the source holds several entries; their conditions need not be identical. Equal values may be shown once. Read-outs that look alike come from different tables or passages of the source.

Description for T. gondii RH tachyzoites: Vero cell line (African green monkey kidney) (ATCC® CCL-81™) were maintained in EMEM (EMEM/10%HIFBS/P/S) (Eagle’s Minimum Essential Medium—ATCC® 30-2003™) culture medium supplemented with 10% HIFBS (Heat-Inactivated (1 h in 56°C) Fetal Bovine Serum—ATCC), 100 U/mL penicillin, 100 μg/mL streptomycin. The cell line was trypsinized (using Trypsin-EDTA Solution, 1X ATCC® 30-2101™) twice a week, and seeded at density 1 × 10^6 per T25 cell culture flask (Falcon), and incubated for 24–48 h at 37 °C and 5 CO2 to achieve a confluent monolayer. The highly virulent RH strain of Toxoplasma gondii, haplogroup I (ATCC® PRA-310™) were maintained as tachyzoites according to the ATCC product sheet, in DMEM (Dulbecco’s Modified Eagle’s Medium—ATCC® 30-2002™) (DMEM/3%HIFBS/P/S—parasite culture medium) under condition 37 °C and 5 CO2 and passage twice per week.
The Vero cells were seeded on 96-well plates (1 × 10^5 cells/100 µL/well) in EMEM/10%HIFBS/P/S. After 24 h of incubation medium was removed and then T. gondii RH tachyzoites were added to the cell monolayers at density 1 × 10^5 cells/100 µL/well in DMEM/3%HIFBS/P/S. One hour later different compounds and sulfadiazine dilutions (100 µL/well) in parasite culture medium were added to the cell monolayers with T. gondii. After subsequent 24 h of incubation 1 µCi/well [5,6-^3H] uracil (Moravek Biochemicals Inc., Brea, CA, USA) was applied to each microculture for further 72 h. The amount of the isotope incorporated into the parasite nucleic acid pool, corresponding to the parasite growth, was measured by liquid scintillation counting using 1450 Microbeta Plus Liquid Scintillation Counter (Wallac Oy, Turku, Finland). The results were expressed as counts per minute (CPM) and transformed to the percentage of viability compared to untreated cells. All experiments were performed in triplicate.

`Cc1nc[nH]c1C(=O)NNC(=S)NCCCl` [Compound 9] displayed a melting point of 175 to 177 °C. Also, the IC50 in the data set with T. gondii RH tachyzoites (read-out: IC50 (50% inhibition of T. gondii proliferation in vitro)) was over 125 µg/mL. Further, in data set [1], the viability at 24 h, 3.91 µg/mL came out at 100%; the viability at 24 h, 7.81 µg/mL amounted to 98.3%; the viability at 24 h, 15.63 µg/mL was found to be 97.1%; the viability at 24 h, 31.25 µg/mL amounted to 96%. In data set [1], the viability at 24 h, 62.5 µg/mL worked out at 95.6%; the viability at 24 h, 125 µg/mL came to 94.4%; the viability at 24 h, 250 µg/mL is 92.8%; the viability at 24 h, 500 µg/mL amounted to 87.4%. The “CC30 (concentration required for 30% cells proliferation inhibition)” value with L929 cells was >500.00 µg/mL and >500 µg/mL.
Compound `Cc1nc[nH]c1C(=O)NNC(=S)Nc1cccc(Cl)c1` [Compound 10, 4-(3-Chlorophenyl)-1-(4-methylimidazol-5-oyl)thiosemicarbazide] returned a melting point of 203 to 205 °C. The IC50 with T. gondii RH tachyzoites (setting [2]) was determined as 25.7 µg/mL (≈ 83 µM). In data set [1] (L929 mouse fibroblast cells), the viability at 24 h, 3.91 µg/mL came out at 95.7%; the viability at 24 h, 7.81 µg/mL came out at 94.1%; the viability at 24 h, 15.63 µg/mL was found to be 93.5%; the viability at 24 h, 31.25 µg/mL came out at 74.6%. Moreover, in data set [1] (L929 mouse fibroblast cells), the viability at 24 h, 62.5 µg/mL is 72.1%; the viability at 24 h, 125 µg/mL was found to be 69.9%; the viability at 24 h, 250 µg/mL was found to be 61.8%; the viability at 24 h, 500 µg/mL turned out to be 22.1%. In addition, the “CC30 (concentration required for 30% cells proliferation inhibition)” value in the data set on L929 cells is reported as 112.20 µg/mL.
`Cc1nc[nH]c1C(=O)NNC(=S)Nc1cccc(F)c1` [Compound 11, 4-(3-Fluorophenyl)-1-(4-methylimidazol-5-oyl)thiosemicarbazide] registered a melting point of 191 to 192 °C. For the same compound, in the data set on T. gondii RH tachyzoites (setting [2]), the IC50 is about 118 µg/mL (≈ 402 µM). Further, in data set [1] (L929 mouse fibroblast cells), the viability at 24 h, 3.91 µg/mL is 104%; the viability at 24 h, 7.81 µg/mL was found to be 101%; the viability at 24 h, 15.63 µg/mL came to 99.8%; the viability at 24 h, 31.25 µg/mL came out at 92.7%. Moreover, in data set [1] (L929 mouse fibroblast cells), the viability at 24 h, 62.5 µg/mL came to 75.6%; the viability at 24 h, 125 µg/mL turned out to be 66%; the viability at 24 h, 250 µg/mL worked out at 57.8%; the viability at 24 h, 500 µg/mL was 46.3%. The “CC30 (concentration required for 30% cells proliferation inhibition)” value with L929 cells is listed as 95.50 µg/mL.
For the compound `COc1ccc(NC(=S)NNC(=O)c2[nH]cnc2C)cc1OC` [Compound 13, 4-(3,4-Dimethoxyphenyl)-1-(4-methylimidazol-5-oyl)thiosemicarbazide], the melting point lay within 223 to 225 °C. For the same compound, in the data set on T. gondii RH tachyzoites (IC50 greater than 125 µg/mL (highest concentration tested), calculated by extrapolation of the curves (GraphPad Prism), read-out: IC50 (50% inhibition of T. gondii proliferation in vitro), extrapolated), the IC50 is about 175 µg/mL (≈ 522 µM). In data set [1] (L929 mouse fibroblast cells), the viability at 24 h, 3.91 µg/mL amounted to 107%; the viability at 24 h, 7.81 µg/mL is 105%; the viability at 24 h, 15.63 µg/mL came to 103%; the viability at 24 h, 31.25 µg/mL came out at 99.8%. For the same compound, in data set [1] (L929 mouse fibroblast cells), the viability at 24 h, 62.5 µg/mL was 97.5%; the viability at 24 h, 125 µg/mL stood at 95.7%; the viability at 24 h, 250 µg/mL came to 94.2%; the viability at 24 h, 500 µg/mL is 77%. In addition, the “CC30 (concentration required for 30% cells proliferation inhibition)” value with L929 cells is >500.00 µg/mL and >500 µg/mL.
With `Cc1ccc(NC(=S)NNC(=O)c2[nH]cnc2C)cc1Cl` [Compound 14, 4-(3-Chloro-4-methylphenyl)-1-(4-methylimidazol-5-oyl)thiosemicarbazide], the melting point fell in the range of 213 to 215 °C. Also, the IC50 in the data set on T. gondii RH tachyzoites (setting [2]) was 18.6 µg/mL (≈ 57.5 µM). Further, in data set [1] (L929 mouse fibroblast cells), the viability at 24 h, 3.91 µg/mL stood at 101%; the viability at 24 h, 7.81 µg/mL is 91.5%; the viability at 24 h, 15.63 µg/mL was found to be 76.6%; the viability at 24 h, 31.25 µg/mL is 67.5%. Also, in data set [1] (L929 mouse fibroblast cells), the viability at 24 h, 62.5 µg/mL amounted to 61.5%; the viability at 24 h, 125 µg/mL was 49.3%; the viability at 24 h, 250 µg/mL stood at 21.1%; the viability at 24 h, 500 µg/mL turned out to be 10.4%. In addition, the “CC30 (concentration required for 30% cells proliferation inhibition)” value in the data set on L929 cells was determined as 28.18 µg/mL.

Broadly, the melting point is the temperature, or range, at which the solid turns liquid. A word on the viability: it is a read-out of living cells in per cent, often relative to untreated cells.

The values are drawn from paper PMC6384730, “Systematic Identification of Thiosemicarbazides for Inhibition of Toxoplasma gondii Growth In Vitro” (Molecules, 2019).
